What was measured:
Test in all cases: biochemical
Design in all cases: Invitrogen kinase panel: Z'Lyte activity (ATP at Km) or LanthaScreen competitive ATP-site binding, percent inhibition
[1] = target: NEK4 (Homo sapiens, UniProt P51957)
[2] = target: T1, MYLK3(caMLCK) (Homo sapiens, UniProt Q32MK0)
T1 construct: caMLCK

[3] = target: MAPKAPK3 (Homo sapiens, UniProt Q16644)
[4] = target: SPHK1 (Homo sapiens, UniProt Q9NYA1)
[5] = target: MAPKAPK2 (Homo sapiens, UniProt P49137)
[6] = target: T2, ASK1 (Homo sapiens, UniProt Q99683)
T2 construct: gene MAP3K5

[7] = target: PASK (Homo sapiens, UniProt Q96RG2)
[8] = target: CDK9/cyclinT1 (Homo sapiens, UniProt P50750)
[9] = target: T3, CaMKI (Homo sapiens, UniProt Q14012)
T3 construct: gene CAMK1

[10] = target: PAK6 (Homo sapiens, UniProt Q9NQU5)
[11] = target: Flt4 (Homo sapiens, UniProt P35916)
[12] = target: EphA8 (Homo sapiens, UniProt P29322)
[13] = target: DMPK (Homo sapiens, UniProt Q09013)
[14] = target: T4, Rsk3 (Homo sapiens, UniProt Q15349)
T4 construct: gene RPS6KA2

[15] = target: EGFR(T790M,L858R) (Homo sapiens, UniProt P00533, L858R/T790M)
[16] = target: T5, DRAK1 (Homo sapiens, UniProt Q9UEE5)
T5 construct: gene STK17A

[17] = target: FGFR4 (Homo sapiens, UniProt P22455)
[18] = target: FGFR3 (Homo sapiens, UniProt P22607)
[19] = target: T6, Rse (Homo sapiens, UniProt Q06418)
T6 construct: gene TYRO3

[20] = target: CSK (Homo sapiens, UniProt P41240)
[21] = target: CLK3 (Homo sapiens, UniProt P49761)
[22] = target: T7, IRR (Homo sapiens, UniProt P14616)
T7 construct: gene INSRR

[23] = target: T8, PKC_epsilon (Homo sapiens, UniProt Q02156)
T8 construct: gene PRKCE

[24] = target: AKT2 (Homo sapiens, UniProt P31751)
AKT2, sequence (P31751 whole entry): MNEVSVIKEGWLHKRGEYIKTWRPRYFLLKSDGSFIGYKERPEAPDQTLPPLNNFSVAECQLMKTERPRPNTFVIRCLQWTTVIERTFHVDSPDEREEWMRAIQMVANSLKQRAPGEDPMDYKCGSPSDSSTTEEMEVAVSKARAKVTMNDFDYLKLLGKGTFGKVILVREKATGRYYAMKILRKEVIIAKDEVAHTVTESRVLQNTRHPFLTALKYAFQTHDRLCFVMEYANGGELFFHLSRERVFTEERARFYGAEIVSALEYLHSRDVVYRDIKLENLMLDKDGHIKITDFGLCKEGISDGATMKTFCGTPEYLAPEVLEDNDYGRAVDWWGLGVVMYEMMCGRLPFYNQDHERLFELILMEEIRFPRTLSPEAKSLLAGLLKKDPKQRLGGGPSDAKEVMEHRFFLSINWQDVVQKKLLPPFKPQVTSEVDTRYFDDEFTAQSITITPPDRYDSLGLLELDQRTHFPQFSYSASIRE

T4 sequence (Q15349 whole entry): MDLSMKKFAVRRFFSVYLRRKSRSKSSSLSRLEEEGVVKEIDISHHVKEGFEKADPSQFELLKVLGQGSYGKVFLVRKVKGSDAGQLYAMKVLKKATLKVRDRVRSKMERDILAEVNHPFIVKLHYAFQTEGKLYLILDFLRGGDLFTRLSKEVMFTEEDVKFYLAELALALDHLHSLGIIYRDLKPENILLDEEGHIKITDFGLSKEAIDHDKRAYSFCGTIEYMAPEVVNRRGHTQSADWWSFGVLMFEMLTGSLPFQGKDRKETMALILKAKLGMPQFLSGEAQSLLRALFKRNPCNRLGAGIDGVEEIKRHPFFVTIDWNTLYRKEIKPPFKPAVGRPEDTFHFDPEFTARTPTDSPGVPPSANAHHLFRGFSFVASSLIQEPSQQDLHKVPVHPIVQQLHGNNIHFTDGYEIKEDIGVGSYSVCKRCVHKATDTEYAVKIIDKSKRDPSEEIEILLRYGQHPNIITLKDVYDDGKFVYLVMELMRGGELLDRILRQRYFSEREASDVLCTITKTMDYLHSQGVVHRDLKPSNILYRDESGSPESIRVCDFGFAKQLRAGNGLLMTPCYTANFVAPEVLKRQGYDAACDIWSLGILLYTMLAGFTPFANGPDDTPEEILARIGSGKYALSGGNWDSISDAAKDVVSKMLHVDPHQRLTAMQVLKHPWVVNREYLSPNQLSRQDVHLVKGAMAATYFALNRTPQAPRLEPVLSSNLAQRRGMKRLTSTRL
NEK4, sequence (P51957 whole entry): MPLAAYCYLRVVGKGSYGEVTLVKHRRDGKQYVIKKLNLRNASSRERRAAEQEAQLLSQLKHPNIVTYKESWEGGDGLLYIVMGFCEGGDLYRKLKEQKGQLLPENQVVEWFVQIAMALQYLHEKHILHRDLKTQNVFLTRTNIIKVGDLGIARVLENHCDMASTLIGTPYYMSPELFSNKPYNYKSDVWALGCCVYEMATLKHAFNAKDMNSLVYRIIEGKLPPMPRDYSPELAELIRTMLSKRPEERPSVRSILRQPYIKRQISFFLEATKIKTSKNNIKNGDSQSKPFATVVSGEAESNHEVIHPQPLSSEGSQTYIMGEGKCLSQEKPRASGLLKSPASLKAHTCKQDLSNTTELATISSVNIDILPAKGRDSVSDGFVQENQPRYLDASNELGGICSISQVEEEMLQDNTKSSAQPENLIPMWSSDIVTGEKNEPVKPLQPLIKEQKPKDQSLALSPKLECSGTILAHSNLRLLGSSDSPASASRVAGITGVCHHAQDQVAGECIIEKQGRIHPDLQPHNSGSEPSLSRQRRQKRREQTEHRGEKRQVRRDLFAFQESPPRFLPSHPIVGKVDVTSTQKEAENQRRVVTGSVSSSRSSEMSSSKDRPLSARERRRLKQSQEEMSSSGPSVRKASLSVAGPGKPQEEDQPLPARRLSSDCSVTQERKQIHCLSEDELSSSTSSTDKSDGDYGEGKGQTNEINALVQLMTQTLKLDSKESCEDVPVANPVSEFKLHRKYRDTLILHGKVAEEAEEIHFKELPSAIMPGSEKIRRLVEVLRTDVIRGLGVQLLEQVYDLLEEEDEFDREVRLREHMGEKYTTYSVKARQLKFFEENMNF
T3 sequence (Q14012 whole entry): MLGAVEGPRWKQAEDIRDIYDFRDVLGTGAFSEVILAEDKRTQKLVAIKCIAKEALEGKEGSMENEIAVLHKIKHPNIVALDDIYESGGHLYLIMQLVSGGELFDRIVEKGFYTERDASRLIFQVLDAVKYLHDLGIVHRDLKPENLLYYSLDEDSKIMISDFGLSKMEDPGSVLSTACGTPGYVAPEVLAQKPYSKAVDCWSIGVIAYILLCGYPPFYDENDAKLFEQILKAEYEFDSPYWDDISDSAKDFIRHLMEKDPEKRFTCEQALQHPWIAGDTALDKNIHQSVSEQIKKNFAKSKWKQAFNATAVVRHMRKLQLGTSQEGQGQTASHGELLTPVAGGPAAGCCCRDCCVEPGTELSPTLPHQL
PASK, sequence (Q96RG2 whole entry): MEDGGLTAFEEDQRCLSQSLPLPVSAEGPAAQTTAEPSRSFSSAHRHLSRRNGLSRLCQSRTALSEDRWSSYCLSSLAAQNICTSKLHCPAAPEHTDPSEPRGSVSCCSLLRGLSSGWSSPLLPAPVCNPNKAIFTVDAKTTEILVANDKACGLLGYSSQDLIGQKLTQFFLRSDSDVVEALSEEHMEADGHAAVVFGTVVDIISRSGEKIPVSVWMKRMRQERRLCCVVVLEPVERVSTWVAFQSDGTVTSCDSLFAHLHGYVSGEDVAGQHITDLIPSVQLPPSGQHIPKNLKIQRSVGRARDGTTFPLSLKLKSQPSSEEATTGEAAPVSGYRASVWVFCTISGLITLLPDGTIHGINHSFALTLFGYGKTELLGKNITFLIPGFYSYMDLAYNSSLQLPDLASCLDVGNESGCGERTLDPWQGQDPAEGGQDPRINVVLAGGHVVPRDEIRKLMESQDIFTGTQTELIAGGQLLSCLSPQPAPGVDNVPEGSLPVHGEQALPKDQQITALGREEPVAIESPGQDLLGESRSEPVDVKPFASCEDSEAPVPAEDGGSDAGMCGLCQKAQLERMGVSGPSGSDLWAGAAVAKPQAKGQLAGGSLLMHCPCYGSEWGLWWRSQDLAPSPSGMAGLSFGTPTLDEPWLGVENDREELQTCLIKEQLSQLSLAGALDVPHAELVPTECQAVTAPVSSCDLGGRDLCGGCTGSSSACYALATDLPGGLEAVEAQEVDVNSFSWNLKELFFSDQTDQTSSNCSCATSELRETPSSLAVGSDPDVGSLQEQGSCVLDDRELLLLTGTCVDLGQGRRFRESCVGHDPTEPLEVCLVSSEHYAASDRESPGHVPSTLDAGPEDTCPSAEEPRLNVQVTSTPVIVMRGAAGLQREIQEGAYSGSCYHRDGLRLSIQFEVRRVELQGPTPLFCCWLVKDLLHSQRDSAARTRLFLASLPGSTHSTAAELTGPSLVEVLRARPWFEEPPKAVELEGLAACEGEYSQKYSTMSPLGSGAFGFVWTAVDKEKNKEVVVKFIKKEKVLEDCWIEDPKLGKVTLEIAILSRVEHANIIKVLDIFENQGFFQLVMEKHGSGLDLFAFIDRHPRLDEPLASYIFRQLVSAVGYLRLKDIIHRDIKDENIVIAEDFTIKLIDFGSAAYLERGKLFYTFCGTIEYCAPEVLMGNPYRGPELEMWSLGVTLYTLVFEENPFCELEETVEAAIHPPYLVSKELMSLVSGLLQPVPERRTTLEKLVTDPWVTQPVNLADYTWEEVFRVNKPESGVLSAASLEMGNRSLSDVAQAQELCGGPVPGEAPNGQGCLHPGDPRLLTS
EGFR(T790M,L858R), sequence (P00533 whole entry T790M/L858R): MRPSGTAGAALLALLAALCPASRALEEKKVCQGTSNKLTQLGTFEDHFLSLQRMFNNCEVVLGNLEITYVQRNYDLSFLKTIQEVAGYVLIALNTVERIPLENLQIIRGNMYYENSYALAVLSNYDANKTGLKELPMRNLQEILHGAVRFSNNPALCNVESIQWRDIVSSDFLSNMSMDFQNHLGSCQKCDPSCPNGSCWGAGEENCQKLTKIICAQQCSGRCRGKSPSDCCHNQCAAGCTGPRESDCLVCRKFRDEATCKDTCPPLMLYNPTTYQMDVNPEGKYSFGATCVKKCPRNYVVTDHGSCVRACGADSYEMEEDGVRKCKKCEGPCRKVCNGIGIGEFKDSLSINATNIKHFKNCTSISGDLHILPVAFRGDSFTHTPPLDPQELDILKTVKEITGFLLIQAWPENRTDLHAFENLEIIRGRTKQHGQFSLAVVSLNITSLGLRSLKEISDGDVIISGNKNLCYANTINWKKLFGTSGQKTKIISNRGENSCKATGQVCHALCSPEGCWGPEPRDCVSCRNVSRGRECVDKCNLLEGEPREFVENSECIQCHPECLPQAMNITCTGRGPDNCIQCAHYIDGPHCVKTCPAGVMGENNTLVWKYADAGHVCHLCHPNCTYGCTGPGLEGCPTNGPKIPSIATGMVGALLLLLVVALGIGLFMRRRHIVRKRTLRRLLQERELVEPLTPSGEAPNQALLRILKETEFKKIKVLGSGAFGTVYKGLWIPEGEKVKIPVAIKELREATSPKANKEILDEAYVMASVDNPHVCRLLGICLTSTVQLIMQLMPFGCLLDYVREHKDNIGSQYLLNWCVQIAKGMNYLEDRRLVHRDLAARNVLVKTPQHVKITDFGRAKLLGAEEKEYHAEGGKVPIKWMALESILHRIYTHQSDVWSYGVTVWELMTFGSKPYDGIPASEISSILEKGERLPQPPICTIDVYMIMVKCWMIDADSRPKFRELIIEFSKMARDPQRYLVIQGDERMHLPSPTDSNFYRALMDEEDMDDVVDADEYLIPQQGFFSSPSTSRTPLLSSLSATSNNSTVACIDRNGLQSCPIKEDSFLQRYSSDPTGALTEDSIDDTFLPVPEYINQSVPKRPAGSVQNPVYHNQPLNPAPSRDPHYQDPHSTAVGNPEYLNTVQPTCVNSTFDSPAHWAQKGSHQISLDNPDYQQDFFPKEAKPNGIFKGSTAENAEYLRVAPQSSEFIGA

| Structure (SMILES) | inhibition at 1 µM [1] | inhibition at 1 µM [2] | inhibition at 1 µM [3] | inhibition at 1 µM [4] | inhibition at 1 µM [5] | inhibition at 1 µM [6] | inhibition at 1 µM [7] | inhibition at 1 µM [8] | inhibition at 1 µM [9] | inhibition at 1 µM [10] | inhibition at 1 µM [11] | inhibition at 1 µM [12] | inhibition at 1 µM [13] | inhibition at 1 µM [14] | inhibition at 1 µM [15] | inhibition at 1 µM [16] | inhibition at 1 µM [17] | inhibition at 1 µM [18] | inhibition at 1 µM [19] | inhibition at 1 µM [20] | further results |
| --- | --- | --- | --- | --- | --- | --- | --- | --- | --- | --- | --- | --- | --- | --- | --- | --- | --- | --- | --- | --- | --- |
| CCOC(=O)Nc1cccc2c(Oc3ncccc3-c3ccnc(N[C@H]4CCCNC4)n3)c(C)ccc12 [G-1749] | 6% | 10.5% | 12.5% | 14.5% | 7.5% | -4% | 4.5% | 29% | -10% | 12.5% | 5.5% | 1.5% | 0% | 10% | 2.5% | 0% | 7.5% | -6% | 8.5% | 6% | inhibition at 1 µM [21]: 7%; inhibition at 1 µM [22]: -0.5%; inhibition at 1 µM [23]: 14.5%; inhibition at 1 µM [24]: 6% |
| CC#CC(=O)Nc1cccc2c(Oc3ncccc3-c3ccnc(N[C@H]4CCCNC4)n3)c(C)ccc12 [G-7658] | 5.5% | 4.5% | 8% | -5% | 1% | 2% | 9.5% | 35% | -2.5% | 11% | 6.5% | 6.5% | 1.5% | 9% | 4% | -4% | 9% | -5% | 6.5% | 5.5% | inhibition at 1 µM [21]: 11.5%; inhibition at 1 µM [22]: 0%; inhibition at 1 µM [23]: 9.5%; inhibition at 1 µM [24]: 4% |

From PMC7736581, “Activation of the IRE1 RNase through remodeling of the kinase front pocket by ATP-competitive ligands” (Nature Communications, 2020)
